Laboratory results from ChEMBL document CHEMBL1687752, “Impact of antifungal prophylaxis on colonization and azole susceptibility of Candida species” (2009).
In brackets after ≈: the same amount, converted by molar mass.

Test system: Nakaseomyces glabratus
Assay: Antifungal activity against 29 days cultured Candida glabrata isolated from neutropenic subject with AML or MDS stool after 48 days of prophylaxis by broth microdilution method
Type: functional
Conditions: not given

| SMILES | MIC |
| --- | --- |
| CCC(C)n1ncn(-c2ccc(N3CCN(c4ccc(OCC5COC(Cn6cncn6)(c6ccc(Cl)cc6Cl)O5)cc4)CC3)cc2)c1=O (stereo unspecified) [ITRACONAZOLE] | 1 µg/mL (≈ 1.42 µM) |

Test system: Nakaseomyces glabratus
Assay: Antifungal activity against 43 days cultured Candida glabrata isolated from HSCT recipient with acute or chronic GVHD mouth receiving antifungal therapy for 168 days after 113 days of prophylaxis by broth microdilution method
Type: functional
Conditions: not given

| SMILES | MIC |
| --- | --- |
| CCC(C)n1ncn(-c2ccc(N3CCN(c4ccc(OCC5COC(Cn6cncn6)(c6ccc(Cl)cc6Cl)O5)cc4)CC3)cc2)c1=O (stereo unspecified) [ITRACONAZOLE] | 2 µg/mL (≈ 2.83 µM) |

Test system: Nakaseomyces glabratus
Assay: Antifungal activity against 111 days cultured Candida glabrata isolated from HSCT recipient with acute or chronic GVHD mouth receiving antifungal therapy for 143 days after 116 days of prophylaxis by broth microdilution method
Type: functional
Conditions: not given

| SMILES | MIC |
| --- | --- |
| CCC(C)n1ncn(-c2ccc(N3CCN(c4ccc(OCC5COC(Cn6cncn6)(c6ccc(Cl)cc6Cl)O5)cc4)CC3)cc2)c1=O (stereo unspecified) [ITRACONAZOLE] | > 8 µg/mL |

Test system: Nakaseomyces glabratus
Assay: Antifungal activity against 56 days cultured Candida glabrata isolated from HSCT recipient with acute or chronic GVHD mouth receiving antifungal therapy for 172 days after 114 days of prophylaxis by broth microdilution method
Type: functional
Conditions: not given

| SMILES | MIC |
| --- | --- |
| CCC(C)n1ncn(-c2ccc(N3CCN(c4ccc(OCC5COC(Cn6cncn6)(c6ccc(Cl)cc6Cl)O5)cc4)CC3)cc2)c1=O (stereo unspecified) [ITRACONAZOLE] | 0.5 µg/mL (≈ 0.709 µM) |

Test system: Nakaseomyces glabratus
Assay: Antifungal activity against Candida glabrata isolated from HSCT recipient 002 with acute or chronic GVHD mouth receiving antifungal drug after 116 days prophylaxis by broth microdilution method
Type: functional
Conditions: not given

| SMILES | MIC |
| --- | --- |
| CCC(C)n1ncn(-c2ccc(N3CCN(c4ccc(OCC5COC(Cn6cncn6)(c6ccc(Cl)cc6Cl)O5)cc4)CC3)cc2)c1=O (stereo unspecified) [ITRACONAZOLE] | > 8 µg/mL |

Test system: Candida albicans
Assay: Antifungal activity against Candida albicans isolated from neutropenic subjects with AML or MDS prior to initiation of posaconazole therapy assessed as maximum MIC by broth microdilution method
Type: functional
Conditions: not given

| SMILES | MIC |
| --- | --- |
| CCC(C)n1ncn(-c2ccc(N3CCN(c4ccc(OCC5COC(Cn6cncn6)(c6ccc(Cl)cc6Cl)O5)cc4)CC3)cc2)c1=O (stereo unspecified) [ITRACONAZOLE] | 0.03 µg/mL |

Test system: Nakaseomyces glabratus
Assay: Antifungal activity against 14 days cultured Candida glabrata isolated from HSCT recipient with acute or chronic GVHD mouth after 17 days of prophylaxis by broth microdilution method
Type: functional
Conditions: not given

| SMILES | MIC |
| --- | --- |
| CCC(C)n1ncn(-c2ccc(N3CCN(c4ccc(OCC5COC(Cn6cncn6)(c6ccc(Cl)cc6Cl)O5)cc4)CC3)cc2)c1=O (stereo unspecified) [ITRACONAZOLE] | > 8 µg/mL |

Test system: Nakaseomyces glabratus
Assay: Antifungal activity against Candida glabrata isolated from HSCT recipients with acute or chronic GVHD prior to initiation of fluconazole therapy by broth microdilution method
Type: functional
Conditions: not given

| SMILES | MIC50 | MIC90 |
| --- | --- | --- |
| CCC(C)n1ncn(-c2ccc(N3CCN(c4ccc(OCC5COC(Cn6cncn6)(c6ccc(Cl)cc6Cl)O5)cc4)CC3)cc2)c1=O (stereo unspecified) [ITRACONAZOLE] | 2 µg/mL (≈ 2.83 µM) | 16 µg/mL (≈ 22.7 µM) |

Test system: Pichia kudriavzevii
Assay: Antifungal activity against 8 days cultured Candida krusei isolated from neutropenic subject with AML or MDS stool after 12 days of prophylaxis by broth microdilution method
Type: functional
Conditions: not given

| SMILES | MIC |
| --- | --- |
| CCC(C)n1ncn(-c2ccc(N3CCN(c4ccc(OCC5COC(Cn6cncn6)(c6ccc(Cl)cc6Cl)O5)cc4)CC3)cc2)c1=O (stereo unspecified) [ITRACONAZOLE] | 0.25 µg/mL (≈ 0.354 µM) |

Test system: Nakaseomyces glabratus
Assay: Antifungal activity against 19 days cultured Candida glabrata isolated from HSCT recipient with acute or chronic GVHD mouth after 17 days of prophylaxis by broth microdilution method
Type: functional
Conditions: not given

| SMILES | MIC |
| --- | --- |
| CCC(C)n1ncn(-c2ccc(N3CCN(c4ccc(OCC5COC(Cn6cncn6)(c6ccc(Cl)cc6Cl)O5)cc4)CC3)cc2)c1=O (stereo unspecified) [ITRACONAZOLE] | > 8 µg/mL |

Test system: Nakaseomyces glabratus
Assay: Antifungal activity against Candida glabrata isolated from neutropenic subjects with AML or MDS prior to initiation of posaconazole therapy assessed as maximum MIC by broth microdilution method
Type: functional
Conditions: not given

| SMILES | MIC |
| --- | --- |
| CCC(C)n1ncn(-c2ccc(N3CCN(c4ccc(OCC5COC(Cn6cncn6)(c6ccc(Cl)cc6Cl)O5)cc4)CC3)cc2)c1=O (stereo unspecified) [ITRACONAZOLE] | 8 µg/mL |

Test system: Candida albicans
Assay: Antifungal activity against Candida albicans isolated from neutropenic subjects with AML or MDS prior to initiation of fluconazole therapy assessed as maximum MIC by broth microdilution method
Type: functional
Conditions: not given

| SMILES | MIC |
| --- | --- |
| CCC(C)n1ncn(-c2ccc(N3CCN(c4ccc(OCC5COC(Cn6cncn6)(c6ccc(Cl)cc6Cl)O5)cc4)CC3)cc2)c1=O (stereo unspecified) [ITRACONAZOLE] | 0.125 µg/mL |

Test system: Candida albicans
Assay: Antifungal activity against Candida albicans isolated from HSCT recipient 928 with acute or chronic GVHD mouth receiving antifungal drug after 112 days prophylaxis by broth microdilution method
Type: functional
Conditions: not given

| SMILES | MIC |
| --- | --- |
| CCC(C)n1ncn(-c2ccc(N3CCN(c4ccc(OCC5COC(Cn6cncn6)(c6ccc(Cl)cc6Cl)O5)cc4)CC3)cc2)c1=O (stereo unspecified) [ITRACONAZOLE] | > 8 µg/mL |

Test system: Nakaseomyces glabratus
Assay: Antifungal activity against 36 days cultured Candida glabrata isolated from neutropenic subject with AML or MDS pharynx after 48 days of prophylaxis by broth microdilution method
Type: functional
Conditions: not given

| SMILES | MIC |
| --- | --- |
| CCC(C)n1ncn(-c2ccc(N3CCN(c4ccc(OCC5COC(Cn6cncn6)(c6ccc(Cl)cc6Cl)O5)cc4)CC3)cc2)c1=O (stereo unspecified) [ITRACONAZOLE] | 1 µg/mL (≈ 1.42 µM) |

Test system: Nakaseomyces glabratus
Assay: Antifungal activity against 42 days cultured Candida glabrata isolated from neutropenic subject with AML or MDS stool after 48 days of prophylaxis by broth microdilution method
Type: functional
Conditions: not given

| SMILES | MIC |
| --- | --- |
| CCC(C)n1ncn(-c2ccc(N3CCN(c4ccc(OCC5COC(Cn6cncn6)(c6ccc(Cl)cc6Cl)O5)cc4)CC3)cc2)c1=O (stereo unspecified) [ITRACONAZOLE] | 1 µg/mL (≈ 1.42 µM) |

Test system: Saccharomyces cerevisiae
Assay: Antifungal activity against Saccharomyces cerevisiae isolated from HSCT recipient 513 with acute or chronic GVHD mouth after 112 days prophylaxis by broth microdilution method
Type: functional
Conditions: not given

| SMILES | MIC |
| --- | --- |
| CCC(C)n1ncn(-c2ccc(N3CCN(c4ccc(OCC5COC(Cn6cncn6)(c6ccc(Cl)cc6Cl)O5)cc4)CC3)cc2)c1=O (stereo unspecified) [ITRACONAZOLE] | 0.5 µg/mL (≈ 0.709 µM) |

Test system: Candida albicans
Assay: Antifungal activity against Candida albicans isolated from HSCT recipient 462 with acute or chronic GVHD mouth after 112 days prophylaxis by broth microdilution method
Type: functional
Conditions: not given

| SMILES | MIC |
| --- | --- |
| CCC(C)n1ncn(-c2ccc(N3CCN(c4ccc(OCC5COC(Cn6cncn6)(c6ccc(Cl)cc6Cl)O5)cc4)CC3)cc2)c1=O (stereo unspecified) [ITRACONAZOLE] | 0.06 µg/mL (≈ 0.085 µM) |

Test system: Pichia kudriavzevii
Assay: Antifungal activity against 14 days cultured Candida krusei isolated from neutropenic subject with AML or MDS pharynx after 12 days of prophylaxis by broth microdilution method
Type: functional
Conditions: not given

| SMILES | MIC |
| --- | --- |
| CCC(C)n1ncn(-c2ccc(N3CCN(c4ccc(OCC5COC(Cn6cncn6)(c6ccc(Cl)cc6Cl)O5)cc4)CC3)cc2)c1=O (stereo unspecified) [ITRACONAZOLE] | 0.25 µg/mL (≈ 0.354 µM) |

Test system: Nakaseomyces glabratus
Assay: Antifungal activity against Candida glabrata isolated from neutropenic subject 1102 with AML or MDS stool receiving antifungal drug after 26 days prophylaxis by broth microdilution method
Type: functional
Conditions: 624 h

| SMILES | MIC |
| --- | --- |
| CCC(C)n1ncn(-c2ccc(N3CCN(c4ccc(OCC5COC(Cn6cncn6)(c6ccc(Cl)cc6Cl)O5)cc4)CC3)cc2)c1=O (stereo unspecified) [ITRACONAZOLE] | > 8 µg/mL |

Test system: Nakaseomyces glabratus
Assay: Antifungal activity against 85 days cultured Candida glabrata isolated from HSCT recipient with acute or chronic GVHD mouth receiving antifungal therapy for 143 days after 116 days of prophylaxis by broth microdilution method
Type: functional
Conditions: not given

| SMILES | MIC |
| --- | --- |
| CCC(C)n1ncn(-c2ccc(N3CCN(c4ccc(OCC5COC(Cn6cncn6)(c6ccc(Cl)cc6Cl)O5)cc4)CC3)cc2)c1=O (stereo unspecified) [ITRACONAZOLE] | 8 µg/mL (≈ 11.3 µM) |
